Data on 19 molecules can be found in patent US20250042889A1, “3CLPRO PROTEASE INHIBITOR” (SHANGHAI QILU PHARMACEUTICAL RESEARCH AND DEVELOPMENT …, priority 2021, published 2025).

In this assay the target is SARS-COV-2 3CLpro/Mpro protease (Severe acute respiratory syndrome coronavirus 2 (2019-nCoV) (SARS-CoV-2), UniProt P0DTD1). In words: Inhibitory effect on SARS-COV-2 3CLpro/Mpro protease by fluorescence resonance energy transfer. The assay is classed as biochemical. To be noted: activity intervals A-D, read-out: IC50 (nM), Inhibition on SARS-CoV-2 3CLpro/Mpro protease.
Consider `O=C(c1cncc(Br)c1)N1CCC[C@@H](Nc2c(C(=O)N3CCCCC3)cc(Br)cc2[N+](=O)[O-])C1` [Example 5, (R)-(5-bromo-2-((1-(5-bromonicotinoyl)piperidin-3-yl)amino)-3-nitrophenyl)(piperidin-1-yl)methanone], for which the IC50 was less than 10 nM.
The same measure for `CNc1cncc(C(=O)N2C[C@H](Nc3c(C(=O)N4C[C@@H](C)O[C@@H](C)C4)cc(Br)cc3[N+](=O)[O-])C[C@H]2C(=O)Nc2ncc(Br)cn2)c1` [Example 445, (2S,4R)-4-((4-bromo-2-((2R,6S)-2,6-dimethylmorpholin-4-carbonyl)-6-nitrophenyl)amino)-N-(5-bromopyrimidin-2-yl)-1-(5-(methylamino)nicotinoyl) pyrrolidine-2-formamide]: 50 to 100 nM; for `CNc1cncc(C(=O)N2CCC[C@@H](Nc3c(C(=O)N4Cc5cnn(C)c5C4)cc(Br)cc3[N+](=O)[O-])C2)c1` [Example 304]: 50 to 100 nM; for `O=C(c1cncc(Br)c1)N1C[C@H](Nc2c(C(=O)N3CCC(F)(F)CC3)cc(Br)cc2[N+](=O)[O-])C(F)(F)C1` [Example 183]: 10 to 50 nM.
The same measure for `CNc1cncc(C(=O)N2CC(Nc3c(C(=O)N4CCC5(CCCC5)CC4)cc(Br)cc3[N+](=O)[O-])C(C)(C)C2)c1` (stereo not shown) [Example 176]: 10 to 50 nM; for `CNc1cncc(C(=O)N2CCC[C@@H](Nc3c(C(=O)N4CCO[C@H](CF)C4)cc(Br)cc3[N+](=O)[O-])C2)c1` [Example 37]: 10 to 50 nM.
The result for `C[C@@H]1CN(C(=O)c2cc(Br)cc(C(F)(F)F)c2N[C@@H]2CCCC[C@@H]2NC(=O)c2cncc3cc(Cl)ccc23)C[C@H](C)O1` [Example 112] reads 10 to 50 nM.
As to `Cc1c(Br)cncc1C(=O)N1CCC[C@@H](Nc2c(C(=O)N3CCCCC3)cc(Br)cc2[N+](=O)[O-])C1` [Example 46], the IC50 is 10 to 50 nM.
The same measure for `CNc1cncc(C(=O)N2CCC[C@@H](Nc3c(C(=O)N4CCc5ccsc5C4)cc(Br)cc3[N+](=O)[O-])C2)c1` [Example 267]: 10 to 50 nM.
The same measure for `O=C(c1cc(Br)cc([N+](=O)[O-])c1N[C@@H]1CCCN(C(=O)c2cc(=O)[nH]c3ccccc23)C1)N1CCC(F)(F)CC1` [Example 54]: 10 to 50 nM; for `CNc1cncc(C(=O)N2CCC[C@@H](Nc3c(C(=O)N4CC(C)O[C@H](C(F)(F)F)C4)cc(Br)cc3[N+](=O)[O-])C2)c1` (stereo partly shown) [Example 345]: 10 to 50 nM.
The same measure for `CNc1cncc(C(=O)N2CCC[C@@H](Nc3c(C(=O)N4C[C@H](C)O[C@@H](C)C4)cc(Br)cc3[N+](=O)[O-])C2)c1` [Example 213]: 10 to 50 nM; for `CNc1cncc(C(=O)N2C[C@H](Nc3c(C(=O)N4C[C@@H](C)O[C@@H](C)C4)cc(Br)cc3[N+](=O)[O-])C[C@H]2C(=O)N[C@H]2CC(=O)N(C)C2)c1` [Example 437]: 50 to 100 nM.
As for `CNc1cncc(C(=O)N2CCC[C@@H](Nc3c(C(=O)N4CCc5nn(C)cc5C4)cc(Br)cc3[N+](=O)[O-])C2)c1` [Example 313], the IC50 lay within 10 to 50 nM.
The same measure for `CNc1cncc(C(=O)N2CCC[C@@H](Nc3c(C(=O)N4CC[C@H](OC)C4)cc(Br)cc3[N+](=O)[O-])C2)c1` [Example 244]: 10 to 50 nM; for `CNc1cncc(C(=O)N2C[C@H](Nc3c(C(=O)N4C[C@@H](C)O[C@@H](C)C4)cc(Br)cc3[N+](=O)[O-])C[C@H]2C#Cc2cnn(C)c2)c1` [Example 392]: 50 to 100 nM.
The result for `O=C(c1cncc(Br)c1)N1CC[C@@H](Nc2c(C(=O)N3CCC(F)(F)CC3)cc(Br)cc2C(F)(F)F)C1` [Example 69] reads 50 to 100 nM.
As to `O=C(N[C@H]1CCCC[C@H]1Nc1c(C(=O)N2CCC(O)CC2)cc(Br)cc1C(F)(F)F)c1cncc2cc(Cl)ccc12` [Example 147], the IC50 is 10 to 50 nM.
Regarding `C[C@@H]1CN(C(=O)c2cc(Br)cc([N+](=O)[O-])c2N[C@@H]2CCCN(C(=O)[C@@H]3CCCOC3)C2)C[C@H](C)O1` [Example 348], the IC50 is 10 to 50 nM.
